The test system of assay [1] is FluB-ht WT. The class given is biochemical. Conditions: 75 nM BXA, 55 nM FluB-ht WT.
Assay [2] deals with cap-snatching endonuclease (PA). Conditions: enzyme concentration not indicated; cited from earlier work.
Assay [3] deals with FluB-ht WT. The class given is biochemical. Conditions: 75 nM BXA.
A further assay deals with FluB-ht. Put plainly: Michaelis-Menten kinetics of BXA inhibition. The class given is biochemical, Influenza B. The following applies: 25 nM FluB-ht, substrate as indicated. The text has this: Supplementary Figure S4. Michaelis-Menten kinetics of BXA inhibition. (A) Scheme detailing the experimental setup and representative data showing the effect of BXA on substrate utilization by FluB-ht. (B) Graphic representation and analysis of the data presented in panel A are shown on the left-hand side graph. The effects of increasing concentrations of BXA on kcat and Km are illustrated on the right-hand side graph. Data represents the average of two independent experiments. The final reaction conditions were as follows: 30 mM Tris-HCL pH 7.5, 25 mM NaCl, 5 mM MgCl2, 25 nM FluB-ht, 1.7 µM vRNA, 5% DMSO, BXA as indicated and 20-nt capped substrate as indicated. The indicated substrate concentrations were achieved by mixing 0.1 µM 20-nt radiolabeled capped substrate RNA with increasing amounts of unlabeled substrate. […] The data point at 2.1 µM was therefore not considered for kcat and Km measurements. […] Tight binding of enzyme and inhibitor depletes the concentration of free enzyme and the steady-state assumption is no longer valid.

Assay [4] concerns the target FluB-ht WT (recombinant influenza B heterotrimeric PA/PB1/PB2 polymerase, PA endonuclease) (Influenza B virus, UniProt Q5V8Z9). Put plainly: biochemical.
In a further assay the test system is influenza infection. The following applies: cited from earlier work.
The next assay relates to influenza virus. Conditions: cited from earlier work.
The next assay relates to influenza. The following applies: single dose, postexposure prophylaxis; placebo group 13.6%; cited from earlier work.

In general, IC50 refers to the concentration needed to halve the response being measured. What is called Ki is a dissociation constant, usually derived from enzyme kinetics or from competition with a known ligand.

Values joined by “and” are separate entries in the source; they are usually repeats but may differ in a detail not shown here. Equal entries are not always repeated. “Also recorded” adds a separate entry of the source. Where two headings read alike, the source gives them in different places.

On to `O=C1c2c(O)c(=O)ccn2N([C@@H]2c3ccccc3SCc3c2ccc(F)c3F)[C@@H]2COCCN12` [BXA, baloxavir acid], for which, in the assay on FluB-ht WT [1], the “preincubation time for maximal inhibition” value is given as about 30 min. Moreover, in assay [2], the IC50 is about 2 nM. For the same compound, in the assay with FluB-ht WT [3] (55 nM FluB-ht WT, 1 hour preincubation), the “inhibition of endonuclease activity by order of addition” value was “inhibition was only observed under conditions where an E:I:Mg^2+ complex was preformed; also recorded: Preincubation E, I, and MgCl2 is required for inhibition”. The “nuclease activity over longer periods of time after preformed E:I:Mg2+ complex” value in the assay on FluB-ht WT [3] (up to 120 min) is recorded as “negligible”. Besides, the “effects of increasing concentrations of BXA on kcat and Km” value in the assay with FluB-ht was “reduction in kcat and constant Km values”. In addition, in assay [4], the IC50 turned out to be 112 nM and the Ki was 12 nM. In addition, the “dependence of IC50 on substrate concentration” value in assay [4] (100, 300 and 500 nM 20-nt substrate, 55 nM FluB-ht WT (Fig. S1)) is listed as “independent within a narrow range of substrate concentrations”. Also, the “slope of plot of IC50 versus enzyme concentration” value in assay [4] (WT) is 0.56 and ~0.5.
`COC(=O)OCOc1c2n(ccc1=O)N([C@@H]1c3ccccc3SCc3c1ccc(F)c3F)[C@@H]1COCCN1C2=O` [BXM, Baloxavir marboxil]: in the assay with influenza infection (human, in vivo), the “reduction in time until symptom resolution” value is 20–25%. For the same compound, in the assay on influenza virus, the EC50 entry is recorded as “low nanomolar range”. Besides, the household transmissions in the assay with influenza is listed as 1.9%.
With `CCOC(=O)C1=C[C@@H](OC(CC)CC)[C@H](NC(C)=O)[C@@H](N)C1` [oseltamivir], in the assay on influenza infection, the “reduction in time until symptom resolution” value was 20–25%.

The record behind these values is paper PMC8065212, “The active form of the influenza cap-snatching endonuclease inhibitor baloxavir marboxil is a tight binding inhibitor” (The Journal of Biological Chemistry, 2021).
